Assay results taken from ChEMBL document CHEMBL1201862, “PubChem BioAssay data set” (2004).
Values joined by “and” are separate entries in the source; they are usually repeats but may differ in a detail not shown here. Equal values may be shown once.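 A five-concentration, 48-hour dose response in 96-well plates underlies each endpoint, interpolated linearly between surrounding concentrations. GI50 marks 50% less growth.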 Active and inactive are the calls of the source. No stated cut-off is given here; in the data, active = GI50 up to about 1.1 µM and inactive = higher.

Experiments:
Test in all cases: DTP human tumour cell line panel, 48 h
[1] = tested on: SF-268
[2] = tested on: SK-MEL-28
[3] = tested on: OVCAR-5
[4] = tested on: SR
[5] = tested on: 786-0
[6] = tested on: OVCAR-8
[7] = tested on: Malme-3M
[8] = tested on: UACC-257
[9] = tested on: HOP-62
[10] = tested on: COLO 205
[11] = tested on: NCI-H226
[12] = tested on: A549
[13] = tested on: SNB-75
[14] = tested on: TK-10
[15] = tested on: SW-620
[16] = tested on: UACC-62
[17] = tested on: SN12C
[18] = tested on: NCI-H460
[19] = tested on: HT-29
[20] = tested on: IGROV-1
[21] = tested on: HL-60
[22] = tested on: SK-MEL-5
[23] = tested on: RPMI-8226
[24] = tested on: EKVX
[25] = tested on: CCRF-CEM
[26] = tested on: KM12
[27] = tested on: NCI/ADR-RES
[28] = tested on: PC-3
[29] = tested on: SNB-19
[30] = tested on: HCT-116
[31] = tested on: NCI-H23
[32] = tested on: MCF7
[33] = tested on: MDA-N
[34] = tested on: T47D
[35] = tested on: SF-295
[36] = tested on: K562
[37] = tested on: A498
[38] = tested on: Hs-578T
[39] = tested on: MDA-MB-231
[40] = tested on: HCT-15
[41] = tested on: UO-31
[42] = tested on: ACHN
[43] = tested on: HCC 2998
[44] = tested on: SK-OV-3
[45] = tested on: U-251
[46] = tested on: MOLT-4
[47] = tested on: DU-145
[48] = tested on: SK-MEL-2
[49] = tested on: SF-539
[50] = tested on: RXF 393
[51] = tested on: M14
[52] = tested on: CAKI-1

O=C(/C=C/c1cccs1)c1ccc(Cl)cc1
GI50 [1]: 50.8 µM (inactive) | GI50 [2]: > 100 µM (inactive) | GI50 [3]: > 100 µM (inactive) | GI50 [4]: 28.1 µM (inactive) | GI50 [5]: 55.7 µM (inactive) | GI50 [6]: 90.4 µM (inactive) | GI50 [7]: > 100 µM (inactive) | GI50 [8]: > 100 µM (inactive) | GI50 [9]: > 100 µM (inactive) | GI50 [10]: > 100 µM (inactive) | GI50 [11]: 67.8 µM (inactive) | GI50 [12]: > 100 µM (inactive) | GI50 [13]: > 100 µM (inactive) | GI50 [14]: > 100 µM (inactive) | GI50 [15]: 28.8 µM (inactive) | GI50 [16]: > 100 µM (inactive) | GI50 [17]: 51.5 µM (inactive) | GI50 [18]: > 100 µM (inactive) | GI50 [19]: 39.7 µM (inactive) | GI50 [20]: > 100 µM (inactive) | GI50 [21]: 28.6 µM (inactive) | GI50 [22]: 65.2 µM (inactive) | GI50 [23]: 22.2 µM (inactive) | GI50 [24]: > 100 µM (inactive) | GI50 [25]: 29.9 µM (inactive) | GI50 [26]: 43.9 µM (inactive) | GI50 [27]: > 100 µM (inactive) | GI50 [28]: > 100 µM (inactive) | GI50 [29]: > 100 µM (inactive) | GI50 [30]: 41.5 µM (inactive) | GI50 [31]: 88.5 µM (inactive) | GI50 [32]: 21.9 µM (inactive) | GI50 [33]: 44.9 µM (inactive) | GI50 [34]: 56.1 µM (inactive) | GI50 [35]: 99.3 µM (inactive) | GI50 [36]: > 10 µM (inactive) | GI50 [37]: 99.3 µM (inactive) | GI50 [38]: > 100 µM (inactive) | GI50 [39]: > 100 µM (inactive) | GI50 [40]: 41 µM | GI50 [41]: 82.2 µM (inactive) | GI50 [42]: > 100 µM (inactive) | GI50 [43]: > 100 µM (inactive) | GI50 [44]: > 100 µM (inactive) | GI50 [45]: > 100 µM (inactive) | GI50 [46]: 23.3 µM (inactive) | GI50 [47]: > 100 µM (inactive) | GI50 [48]: > 100 µM (inactive) | GI50 [49]: > 100 µM (inactive)

COC(=O)/C=C/c1cc(OC)c2c(c1)C(C(=O)OC)C(c1ccc(O)c(OC)c1)O2 (stereo not drawn)
GI50 [1]: 7.87 µM (inactive) and 8.04 µM (inactive) and 5.83 µM (inactive) | GI50 [50]: 1.88 µM (inactive) and 2.98 µM (inactive) and 2.43 µM (inactive) | GI50 [5]: 3.44 µM (inactive) and 2.21 µM (inactive) and 4.33 µM (inactive) | GI50 [7]: 4.58 µM (inactive) and 4.39 µM (inactive) and 2.74 µM (inactive) | GI50 [12]: 6.25 µM (inactive) and 5.69 µM (inactive) and 6 µM (inactive) | GI50 [13]: 1.95 µM (inactive) and 1.51 µM (inactive) and 1.94 µM (inactive) | GI50 [22]: 2.27 µM (inactive) and 2.57 µM (inactive) and 1.4 µM (inactive) | GI50 [26]: 2.83 µM (inactive) and 3.34 µM (inactive) and 2.13 µM (inactive) | GI50 [28]: 3.13 µM (inactive) and 2.84 µM (inactive) and 2.79 µM (inactive) | GI50 [31]: 5.08 µM (inactive) and 3.93 µM (inactive) and 5.18 µM (inactive) | GI50 [34]: 3.87 µM (inactive) and 7.14 µM (inactive) and 3.73 µM (inactive) | GI50 [35]: 2.2 µM (inactive) and 2.36 µM (inactive) and 1.22 µM (inactive) | GI50 [37]: 8.95 µM (inactive) and 15.2 µM (inactive) and 8.2 µM (inactive) | GI50 [38]: 2.69 µM (inactive) and 2.38 µM (inactive) and 1.67 µM (inactive) | GI50 [39]: 2.49 µM (inactive) and 4.51 µM (inactive) and 3.15 µM (inactive) | GI50 [41]: 4.98 µM (inactive) and 4.86 µM (inactive) and 9.53 µM (inactive) | GI50 [44]: 5.71 µM (inactive) and 5.64 µM (inactive) and 3.26 µM (inactive) | GI50 [45]: 3.4 µM (inactive) and 3.29 µM (inactive) and 3.13 µM (inactive) | GI50 [51]: 4.05 µM (inactive) and 5.74 µM (inactive) and 3.53 µM (inactive) | GI50 [47]: 3.72 µM (inactive) and 3.18 µM (inactive) and 4.32 µM (inactive) | GI50 [49]: 2.69 µM (inactive) and 2.17 µM (inactive) and 1.82 µM (inactive)

CC1OC(c2ccccc2)=CC(OCc2ccccc2)[C@H]1OCc1ccccc1 (stereo partly drawn)
GI50 [1]: > 10 µM (inactive) | GI50 [2]: > 10 µM (inactive) | GI50 [4]: > 10 µM (inactive) | GI50 [50]: > 10 µM (inactive) | GI50 [5]: > 10 µM (inactive) | GI50 [6]: > 10 µM (inactive) | GI50 [7]: > 10 µM (inactive) | GI50 [9]: > 10 µM (inactive) | GI50 [12]: > 10 µM (inactive) | GI50 [13]: > 10 µM (inactive) | GI50 [14]: > 10 µM (inactive) | GI50 [15]: > 10 µM (inactive) | GI50 [16]: > 10 µM (inactive) | GI50 [17]: > 10 µM (inactive) | GI50 [20]: > 10 µM (inactive) | GI50 [22]: > 10 µM (inactive) | GI50 [23]: > 10 µM (inactive) | GI50 [24]: > 10 µM (inactive) | GI50 [25]: > 10 µM (inactive) | GI50 [26]: > 10 µM (inactive) | GI50 [28]: > 10 µM (inactive) | GI50 [31]: > 10 µM (inactive) | GI50 [32]: > 10 µM (inactive) | GI50 [33]: > 10 µM (inactive) | GI50 [34]: > 10 µM (inactive) | GI50 [35]: > 10 µM (inactive) | GI50 [52]: > 10 µM (inactive) | GI50 [39]: > 10 µM (inactive) | GI50 [40]: > 10 µM | GI50 [43]: > 10 µM (inactive) | GI50 [44]: > 10 µM (inactive) | GI50 [51]: > 10 µM (inactive) | GI50 [46]: > 10 µM (inactive)
